# Counter-ions that a name gives are not always drawn.
# Experiments:
# Format in all cases: cell-based
# ABCG2 [1] = target: T1, ABCG2 (Homo sapiens, UniProt Q9UNQ0); assay: BLI D-luciferin efflux inhibition in HEK293/ABCG2/fLuc cells
# T1 sequence (Q9UNQ0 1-655): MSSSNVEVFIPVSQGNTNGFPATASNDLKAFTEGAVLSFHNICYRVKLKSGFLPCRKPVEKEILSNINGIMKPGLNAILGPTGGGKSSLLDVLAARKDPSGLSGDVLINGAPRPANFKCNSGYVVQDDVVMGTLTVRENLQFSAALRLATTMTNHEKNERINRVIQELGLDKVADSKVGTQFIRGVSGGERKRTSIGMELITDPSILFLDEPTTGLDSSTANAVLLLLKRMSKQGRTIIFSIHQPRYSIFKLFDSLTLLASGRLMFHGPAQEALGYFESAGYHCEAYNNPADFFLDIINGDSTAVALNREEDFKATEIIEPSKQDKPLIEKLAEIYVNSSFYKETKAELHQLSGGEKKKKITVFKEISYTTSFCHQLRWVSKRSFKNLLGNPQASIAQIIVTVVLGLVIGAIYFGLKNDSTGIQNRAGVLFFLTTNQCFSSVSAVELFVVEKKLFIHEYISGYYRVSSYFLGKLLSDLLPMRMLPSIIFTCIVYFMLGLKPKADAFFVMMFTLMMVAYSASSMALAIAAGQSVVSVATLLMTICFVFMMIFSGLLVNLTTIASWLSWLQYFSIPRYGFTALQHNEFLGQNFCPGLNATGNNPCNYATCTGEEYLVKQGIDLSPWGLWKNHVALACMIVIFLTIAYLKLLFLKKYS
# ABCG2 [2] = target: T1, ABCG2
# ABCG2 [3] = target: T1, ABCG2; assay: BODIPY-prazosin uptake in HEK293/ABCG2 cells at […]
Compound,IC50 (ABCG2 [1]) [µM],also measured
COc1cc(N)c(Cl)cc1C(=O)NC1CCN(Cc2ccccc2)CC1 [clebopride maleate],~8.2,
COc1cc2nc(N3CCN(C(=O)C4COc5ccccc5O4)CC3)nc(N)c2cc1OC (centres unmarked) [doxazosin mesylate],~8,
Cc1c(-c2ccccc2)oc2c(C(=O)OCCN3CCCCC3)cccc2c1=O [flavoxate hydrochloride],~20,
CC(C)C(=O)Nc1ccc([N+](=O)[O-])c(C(F)(F)F)c1 [flutamide],,BODIPY-prazosin uptake in HEK293/ABCG2 cells at 20 μM; BLI 6.1-fold enhancement; (ABCG2 [2]): flutamide|Y|Y
C=C(C)[C@H]1Cc2c(ccc3c2O[C@@H]2COc4cc(OC)c(OC)cc4[C@@H]2C3=O)O1 [rotenone],,BODIPY-prazosin uptake in HEK293/ABCG2 cells at 20 μM; BLI 6.7-fold enhancement; (ABCG2 [3]): rotenone|Y|Y

# — publication PMC2711991 (Cancer research, 2009)
